For 23 compounds, IC50 results are on record in patent US9745295B2, “Thiazole-substituted aminoheteroaryls as spleen tyrosine kinase inhibitors” (Merck Sharp & Dohme Corp., priority 2013, dated 2017).

The test addresses T1, recombinant human GST-SYK (Homo sapiens, UniProt P43405).
T1 construct: purchased Carna Biosciences 08-176
Kind of test: Homogeneous Time-Resolved Fluorescence (HTRF) assay for the recombinant human Syk enzyme. Format: biochemical. As to conditions: recombinant human GST-SYK 5 pM, ATP 25 μM, read-out: rhSYK IC50. The protocol:
Homogeneous Time-Resolved Fluorescence (HTRF) Assay for the Recombinant Human Syk Enzyme
A recombinant GST-hSYK fusion protein was used to measure potency of compounds to inhibit human Syk activity. The recombinant human GST-SYK (Carna Biosciences #08-176) (5 pM final concentration) was incubated with various concentrations of the inhibitor diluted in DMSO (0.1% final concentration) for 10 minutes at room temperature in 15 mM Tris-HCl (pH 7.5), 0.01% tween 20, 2 mM DTT in 384 well plate format. To initiate the reaction the biotinylated substrate peptide (250 nM final concentration) that contains the phosphorylation site for Syk was added with magnesium (5 mM final concentration) and ATP (25 μM final concentration). Final volume of the reaction was 10 μL. Phosphorylation of the peptide was allowed to proceed for 45′ at room temperature. To quench the reaction and detect the phosphorylated product, 2 nM of a Europium-anti-phosphotyrosine antibody (Perkin Elmer #AD0161) and 70 nM SA-APC (Perkin-Elmer #CR130-100) were added together in 15 mM Tris pH 7.5, 40 mM EDTA, 0.01% tween 20. Final volume of the quenching solution was 10 μL.
The resulting HTRF signal was measured after 30 minutes on an EnVision (Perkin-Elmer) reader using a time-resolved fluorescence protocol. Table A below lists activities as IC50 values (nM) for representative compounds of the invention.
A general note: TR-FRET usually uses a lanthanide donor and a delayed reading to cut background.

pIC50: −log10 of the molar value.

Turning to `COc1cc(Nc2cc(C)cc(-c3cnc(C4(O)CCC(C(=O)O)C(C)(C)C4)s3)n2)ncn1` (single isomer, unassigned) [Example 3.4, (1S,4R or 1R,4S)-4-hydroxy-4-(5-{6-[(6-methoxypyrimidin-4-yl)amino]-4-methylpyridin-2-yl}-1,3-thiazol-2-yl)-2,2-dimethylcyclohexane-carboxylic acid], the negative logarithm of the IC50 (pIC50) – broadly, the IC50 on a negative log10 scale, so that one unit is a factor of ten – was 8.63.

For `Cc1cc(Nc2cc(C(F)(F)F)ncn2)nc(-c2cnc(C3(O)CCC(C(=O)O)C(C)(C)C3)s2)c1` (single isomer, unassigned) [Example 1.6, (1S,4R or 1R,4S)-4-hydroxy-2,2-dimethyl-4-[5-(4-methyl-6-{[6-(trifluoromethyl)pyrimidin-4-yl]amino}pyridin-2-yl)-1,3-thiazol-2-yl] cyclohexane-carboxylic acid], the negative logarithm of the IC50 (pIC50) is 9.36.

With `Cc1cc(Nc2cccc(C(F)(F)F)n2)cc(-c2cnc(C3(O)CCC(C(=O)O)C(C)(C)C3)s2)c1` (single isomer, unassigned) [Example 2.5, (1S,4R or 1R,4S)-4-hydroxy-2,2-dimethyl-4-[5-(3-methyl-5-{[6-(trifluoromethyl)pyridin-2-yl]amino}phenyl)-1,3-thiazol-2-yl]cyclohexane-carboxylic acid], the pIC50 is 5.55.

`Cc1cc(Nc2cc(C)ncn2)nc(-c2cnc(C3(O)CCCc4cc(C(=O)O)ccc43)s2)c1` (single isomer, unassigned) [Example 2.9, (R or S)-5-hydroxy-5-(5-{4-methyl-6-[(6-methylpyrimidin-4-yl)amino]pyridin-2-yl}-1,3-thiazol-2-yl)-5,6,7,8-tetrahydronaphthalene-2-carboxlic acid]: the pIC50 is 9.67.

As to `Cc1cc(Nc2cnccn2)nc(-c2cnc([C@@]3(O)CC[C@H](C(=O)O)C(C)(C)C3)s2)c1` (single isomer, unassigned) [Example 3.8, (1S,4R or 1R,4S)-4-hydroxy-2,2-dimethyl-4-{5-[4-methyl-6-(pyrazin-2-ylamino)pyridin-2-yl]-1,3-thiazol-2-yl}cyclohexanecarboxylic acid], the pIC50 is 9.22.

Take `COc1ccnc(Nc2cc(C)nc(-c3cnc(C(C)(O)[C@H]4CC[C@H](C(=O)O)CC4)s3)c2)n1` (single isomer, unassigned) [Example 4.9, (trans)-4-((R or S)-1-hydroxy-1-(5-{4-[(4-methoxypyrimidin-2-yl)amino]-6-methylpyridin-2-yl}-1,3-thiazol-2-yl)ethyl]cyclohexane carboxylic acid]: the pIC50 was 9.23.

In the case of `Cc1cc(Nc2nccc(OC(C)C)n2)cc(-c2cnc(C3(O)CCC(C(=O)O)C(C)(C)C3)s2)n1` (centres unmarked) [Example 1.16, 4-hydroxy-2,2-dimethyl-4-[5-(6-methyl-4-{[4-(1-methylethoxy)pyrimidin-2-yl]amino}pyridin-2-yl)-1,3-thiazol-2-yl] cyclohexane-carboxylic acid], the negative-log IC50 (pIC50) is 9.16.

`COc1cc(Nc2nccc(C(F)(F)F)n2)cc(-c2cnc(C(C)(O)[C@H]3CC[C@H](C(=O)O)CC3)s2)n1` (single isomer, unassigned) [Example 4.21, (trans)-4-((R or S)-1-hydroxy-1-[5-(6-methoxy-4-{[4-(trifluoromethyl)pyrimidin-2-yl]amino}pyridin-2-yl)-1,3-thiazol-2-yl]ethyl}cyclohexane carboxylic acid]: the pIC50 is 8.67.

For `Cc1cc(Nc2nccc(C(F)(F)F)n2)cc(-c2cnc(C3(O)CCCc4cc(C(=O)O)ccc43)s2)n1` (single isomer, unassigned) [Example 4.25, (R or S)-5-hydroxy-5-[5-(6-methyl-4-{[4-(trifluoromethyl)pyrimidin-2-yl]amino}pyridin-2-yl)-1,3-thiazol-2-yl]-5,6,7,8-tetrahydronaphthalene-2-carboxylic acid], the negative logarithm of the IC50 (pIC50) is 9.40.

On to `Cc1cc(Nc2cc(C(F)(F)F)ncn2)nc(-c2cnc([C@@]3(O)CC[C@H](C(=O)O)[C@H](C)C3)s2)c1` (single isomer, unassigned) [Example 1.3, rel-(1S,2R,4R or S)-4-hydroxy-2-methyl-4-[5-(4-methyl-6-{[6-(trifluoromethyl)pyrimidin-4-yl]amino}pyridin-2-yl)-1,3-thiazol-2-yl] cyclohexane-carboxylic acid], for which the pIC50 is 9.03.

Regarding `CC(O)(c1ncc(-c2cc(Nc3nccc(C(F)(F)F)n3)cc(Cl)n2)s1)[C@H]1CC[C@H](C(=O)O)CC1` (single isomer, unassigned) [Example 4.23, (trans)-4-((R or S)-1-[5-(6-chloro-4-{[4-(trifluoromethyl)pyrimidin-2-yl]amino}pyridin-2-yl)-1,3-thiazol-2-yl]-1-hydroxyethyl} cyclohexanecarboxylic acid], the pIC50 is 8.28.

`CC1(C)CC(O)(c2ncc(-c3cccc(Nc4cc(C(F)(F)F)ncn4)n3)s2)CCC1C(=O)O` (single isomer, unassigned) [Example 3.6, (1S,4R or 1R,4S)-4-hydroxy-2,2-dimethyl-4-[5-(6-{[6-(trifluoromethyl)pyrimidin-4-yl]amino}pyridin-2-yl)-1,3-thiazol-2-yl]cyclohexanecarboxylic acid]: the negative logarithm of the IC50 (pIC50) is 9.29.

As to `COC(=O)C1CCC(O)(c2ncc(-c3cc(Nc4nccc(C(F)(F)F)n4)cc(C)n3)s2)CC1(C)C` (centres unmarked) [Example 1.8, methyl 4-hydroxy-2,2-dimethyl-4-[5-(6-methyl-4-{[4-(trifluoromethyl)pyrimidin-2-yl]amino}pyridin-2-yl)-1,3-thiazol-2-yl] cyclohexane-carboxylate], the negative logarithm of the IC50 (pIC50) is 8.08.

As to `Cc1cc(Nc2nccc(C)n2)cc(-c2cnc([C@@]3(O)CC[C@H](C(=O)O)C(C)(C)C3)s2)n1` (single isomer, unassigned) [Example 4.3, (1S,4R or 1R, 4S)-4-hydroxy-2,2-dimethyl-4-(5-{6-methyl-4-[(4-methylpyrimidin-2-yl)amino]pyridin-2-yl}-1,3-thiazol-2-yl)cyclohexanecarboxylic acid], the pIC50 was 7.66.

As to `CCOc1cc(Nc2nccc(C(F)(F)F)n2)cc(-c2cnc(C3(O)CCC3)s2)n1` [Example 4.1, 1-(5-(6-Ethoxy-4-((4-(trifluoromethyl)pyrimidin-2-yl)amino)pyridin-2-yl)thiazol-2-yl)cyclobutanol], the pIC50 is 6.95.

`Cc1ccnc(Nc2ccc(-c3cnc(C4(O)CCC(C(=O)O)CC4)s3)cc2C)c1` (stereo not drawn) [Example 4.13, cis-4-hydroxy-4-(5-{3-methyl-4-[(4-methylpyridin-2-yl)amino]phenyl}-1,3-thiazol-2-yl)cyclohexanecarboxylic acid]: the pIC50 was 7.36.

For the compound `Cc1cc(-c2cnc(C3(O)CCC3)s2)nc(Nc2cc(C(F)(F)F)ccn2)n1` [Example 4.4, 1-[5-(6-methyl-2-{[4-(trifluoromethyl)pyridin-2-yl]amino}pyrimidin-4-yl)-1,3-thiazol-2-yl]cyclobutanol], the pIC50 was 7.36.

In the case of `Cc1cc(Nc2nccc(C(F)(F)F)n2)cc(-c2cnc(C(C)(O)c3ccc(C(=O)O)cc3)s2)n1` (single isomer, unassigned) [Example 1.21, (R or S)-4-(1-hydroxy-1-(5-(6-methyl-4-((4-(trifluoromethyl)pyrimidin-2-yl)amino)pyridin-2-yl)thiazol-2-yl)ethyl)benzoic acid], the negative-log IC50 (pIC50) was 8.23.

Consider `Cc1cc(Nc2ncnc(C)n2)cc(-c2cnc([C@@]3(O)CC[C@H](C(=O)O)C(C)(C)C3)s2)c1` [Example 2.2, (1S,4R)-4-hydroxy-2,2-dimethyl-4-(5-{3-methyl-5-[(4-methyl-1,3,5-triazin-2-yl)amino]phenyl}-1,3-thiazol-2-yl)cyclohexanecarboxylic acid], for which the pIC50 was 7.28.

In the case of `Cc1cc(Nc2cc(C)ccn2)cc(-c2cnc(C(C)(O)C3CCC(C(=O)O)CC3)s2)c1` (single isomer, unassigned) [Example 4.15, (trans)-4-((R or S)-[1-hydroxy-1-(5-{3-methyl-5-[(4-methylpyridin-2-yl)amino]phenyl}-1,3-thiazol-2-yl)ethyl]cyclohexanecarboxylic acid], the negative-log IC50 (pIC50) was 7.53.

For `Cc1cc(Nc2cc(C3CCCCC3)ncn2)nc(-c2cnc(C3(O)CCCc4cc(C(=O)O)ccc43)s2)c1` (single isomer, unassigned) [Example 2.10, (R or S)-5-(5-{6-[(6-cyclohexylpyrimidin-4-yl)amino]-4-methylpyridin-2-yl}-1,3-thiazol-2-yl)-5-hydroxy-5,6,7,8-tetrahydronaphthalene-2-carboxylic acid], the pIC50 was 8.95.

`COc1cc(Nc2cc(C)cc(-c3cnc([C@@]4(O)CC[C@H](C(N)=O)C(C)(C)C4)s3)n2)ncn1` (single isomer, unassigned) [Example 3.1, (1S,4R or 1R,4S)-4-Hydroxy-4-(5-{6-[(6-methoxypyrimidin-4-yl)amino]-4-methylpyridin-2-yl}-1,3-thiazol-2-yl)-2,2-dimethylcyclohexanecarboxamide]: the pIC50 is 8.60.

In the case of `Cc1cc(Nc2nccc(OC(C)C)n2)cc(-c2cnc([C@@]3(O)CC[C@H](C(N)=O)C(C)(C)C3)s2)n1` (single isomer, unassigned) [Example 1.1, (1S,4R or 1R,4S)-4-hydroxy-4-(5-(4-((4-isopropoxypyrimidin-2-yl)amino)-6-methylpyridin-2-yl)thiazol-2-yl)-2,2-dimethylcyclohexanecarboxamide], the pIC50 is 8.96.
